Values belong to the compound of their own block, whether it stands above or below them.
Tests used:
[1] = Quantum yields of photoinduced CH3CN ligand exchange in H2O (Example 12); format: physicochemical; details: for quantum yield, first CH3CN ligand exchange (Φ500) / quantum yield, first CH3CN ligand exchange (Φ550): H2O; for quantum yield, first CH3CN ligand exchange (Φ500): 500 nm irradiation
Protocol: The quantum yields (Φ) for photoinduced ligand exchange of the first CH3CN in H2O were measured for complexes 12.1 and 12.3 with 500 nm and 550 nm irradiation wavelengths using the appropriate bandpass filters. The moles of complex reacted was quantitated using electronic absorption spectroscopy by monitoring the decrease in MLCT absorption maximum of each complex as a function of irradiation time (moles reacted/s) at early irradiation times, and Reinecke's salt was used as an actinometer to determine the intensity (Einstein/s) of the Xe arc lamp at the corresponding wavelengths. The Φ for the photoinduced ligand exchange of the second CH3CN ligand was measured for 12.1 using 400 nm and 550 nm irradiation wavelengths using the appropriate bandpass filters monitoring the decrease in the MLCT absorption peak of the mono-aqua intermediate, 12.4.

[2] = Dark controls: ligand exchange in the absence of light; format: physicochemical; details: H2O, room temperature (˜22° C.)
Protocol: FIG. 23. Dark Control with respect to FIG. 22 showing that the nitrile ligands are not released under similar conditions in the absence of light for a period of 24 hours.
Photochemistry. The photoreactivity of 12.1-12.3 was evaluated by monitoring the changes to the electronic absorption and ^1H NMR spectra as a function of irradiation time. […] Complexes 12.1-12.3 are inert to ligand substitution in the dark at room temperature under similar experimental conditions. For the symmetrical complexes 12.2 and 12.3, one resonance is observed in CD3CN corresponding to the methyl protons of both bound acetonitrile ligands at 2.22 ppm and 2.28 ppm, respectively. During the photolysis of 12.2 in CD3CN with λirr≧455 nm, the resonance at 2.22 ppm decreases with increasing irradiation time, while a peak at 1.96 ppm corresponding to free CH3CN in CD3CN increases in intensity at the same rate. The photolysis of 12.3 in CD3CN with λirr≧610 nm yields similar results with the decrease of the peak at 2.28 ppm with the concomitant increase of the free CH3CN resonance at 1.96 ppm. The intensity of the peak corresponding to free CH3CN at 1.96 ppm integrates to two ligands at the end of the photolysis for both 12.2 and 12.3 in CD3CN, indicative that that both CH3CN ligands in 12.2 and 12.3 are exchanged. […] Moreover, no shifts are observed in the aromatic region as the reaction progresses. […]

[3] = target: T1, human cathepsin B (Homo sapiens, UniProt P07858); test: Cathepsin B inhibition, Z-Arg-Arg-AMC, light vs dark; format: biochemical; details: without irradiation (dark); pH 6.0
T1 construct: Purified cathepsin B (human liver) was obtained from Enzo Life Sciences; purchased Enzo Life Sciences; host or cells: human liver (tissue-purified)
Source text: (§1) The irradiation wavelength was selected by placing a bandpass filter (395 nm cutoff) between the lamp and the sample, along with a 10 cm water cell to absorb infrared light.

[4] = target: T2, papain (Carica papaya, UniProt P00784); test: Papain inhibition, chromogenic substrate BAPNA, light vs dark; format: biochemical
T2 sequence (P00784 134-345): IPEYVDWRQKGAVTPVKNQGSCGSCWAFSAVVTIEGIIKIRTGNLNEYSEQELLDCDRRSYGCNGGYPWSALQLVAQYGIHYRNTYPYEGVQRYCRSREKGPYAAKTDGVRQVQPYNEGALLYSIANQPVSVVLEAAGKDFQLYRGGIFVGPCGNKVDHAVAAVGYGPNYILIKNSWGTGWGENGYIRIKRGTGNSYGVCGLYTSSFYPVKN
Protocol: FIG. 5. […] Data points represent an average of three reactions and error bars are standard deviations.
Papain Inhibition Studies. The inhibition studies with papain were carried out following a modified procedure by Gütschow and coworkers (Löser et al., J. Med. Chem. 2005, 48, 7688-7707). […] A 0.25 mM papain stock solution was prepared in 0.1 mM HCl and kept frozen. For each experiment, the stock solution was diluted 250 times and activated for 45 min at 25° C. with a 0.1 M phosphate pH 6.5, 15 mM DTT and 2.5 mM EDTA buffer solution. A 10.0 mM solution of BAPNA in DMSO was prepared daily and plated (final concentration 1.0 mM). The inhibitor was plated as a 1% DMSO solution in the assay buffer.
The photolysis was conducted for 10 minutes (with gentle shaking of the plate every 2-3 minutes) using a 250 W tungsten halogen lamp (Osram Xenophot HLX) powered by a 24 V power supply. The irradiation wavelength was selected by placing a bandpass filter (395 nm cutoff) between the lamp and the sample, along with a 10 cm water cell to absorb infrared light. After photolysis, the reaction was initiated by addition of 65 μL of enzyme (final volume 100 μL, final enzyme concentration 0.65 μM). The absorbance changes due to the hydrolysis product p-nitroaniline (pNA) were measured at 405 nm every 2 min for 14 min (8 measures) at 25° C.

[5] = target: T3, human cathepsin L (Homo sapiens, UniProt P07711); test: Cathepsin L inhibition, Z-Phe-Arg-AMC, light vs dark; format: biochemical; details: without irradiation (dark); pH 5.5
T3 construct: purchased Sigma
T3 sequence (P07711 114-333): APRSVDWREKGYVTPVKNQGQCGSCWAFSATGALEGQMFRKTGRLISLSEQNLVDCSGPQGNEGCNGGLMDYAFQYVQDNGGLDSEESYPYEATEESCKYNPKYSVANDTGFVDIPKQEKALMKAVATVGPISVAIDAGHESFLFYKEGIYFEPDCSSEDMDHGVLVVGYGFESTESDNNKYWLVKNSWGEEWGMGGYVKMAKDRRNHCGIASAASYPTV
Source text: as §1

[6] = target: T4, human cathepsin B in hBMSC lysates (Homo sapiens, UniProt P07858); test: Cathepsin B activity in hBMSC lysates, Z-Arg-Arg-AMC; format: biochemical; details: hBMSC lysate, without irradiation (dark)
T4 construct: lysates from primary human bone marrow stromal cells (hBMSC), an important source of cathepsin activity; endogenous in cells; host or cells: primary human bone marrow stromal cells (hBMSC), lysate
Source text: as §1

[7] = target: T5, human cathepsin B in DU145 lysates (Homo sapiens, UniProt P07858); test: Cathepsin B activity in DU145 lysates, Z-Arg-Arg-AMC; format: biochemical; details: DU145 lysate, without irradiation (dark)
T5 construct: endogenous in cells; host or cells: DU145 prostate carcinoma cells (ATCC), lysate
Source text: as §1

[8] = target: T6, human cathepsin K (Homo sapiens, UniProt P43235); test: Cathepsin K inhibition, Z-Gly-Pro-Arg-AMC, light vs dark; format: biochemical; details: without irradiation (dark); pH 5.5
T6 sequence (P43235 115-329): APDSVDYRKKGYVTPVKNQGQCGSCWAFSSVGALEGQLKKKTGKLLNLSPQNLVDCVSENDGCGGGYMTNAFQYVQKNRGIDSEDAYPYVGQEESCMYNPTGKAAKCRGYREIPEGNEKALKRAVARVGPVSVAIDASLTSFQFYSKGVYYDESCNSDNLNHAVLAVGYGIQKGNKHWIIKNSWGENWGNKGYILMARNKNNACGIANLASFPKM
Protocol: Cathepsins B, K and L were then examined for photoinduced inhibition with V. IC50 values for 1 and V (with and without irradiation) were determined in aqueous buffer at pH 5.5 for cathepsins L and K, and pH 6.0 for cathepsin B using fluorogenic substrates selective for each enzyme (Table 1). […] Control experiments show some level of inhibition by [Ru^II(bpy)2(MeCN)2](PF6)2, which may explain the lower ratios for dark vs. light conditions observed with cathepsins vs. papain.
The IC50 values represent the average from three independent experiments. […] Activities were determined with the fluorogenic substrates Z-Arg-Arg-AMC (cathepsin B), Z-Gly-Pro-Arg-AMC (cathepsin K) and Z-Phe-Arg-AMC (cathepsin L) (where AMC is aminomethylcoumarin). […]
Cathepsin Inhibition Studies. Cathepsin enzyme activity was determined from kinetic measurements performed by fluorometric detection of the hydrolysis product aminomethylcoumarin (AMC) at 37° C. every 2 min for 14 min (8 measures). […]
The photolysis was conducted for 10 minutes (with gentle shaking of the plate every 2-3 min) using a 250 W tungsten halogen lamp (Osram Xenophot HLX) powered by a 24 V power supply. […] Cathepsin enzyme activity was determined from kinetic measurements performed by fluorometric detection of the hydrolysis product AMC at 37° C. every 2 min for 14 min (8 measures) and MAX RFU slope values used for plotting (FIG. 7).

[9] = reported, cited from earlier work
[10] = test system: BMM cells; test: MTT cell viability, BMM cells; format: cell-based, murine; details: 1 nM-100 μM, light or dark, after 24 h
Protocol: In order to gain more insight into the biological behavior of the caged inhibitor, effects of VI and its byproducts on cell viability in BMM cells were determined under light and dark conditions. BMM cells were treated with either VI or cis-[Ru(bpy)2(MeCN)2](PF6)2 as a control (1 nM-100 μM), incubated for 30 min, left in the dark or irradiated with a tungsten halogen lamp for 15 min and then washed, using the same protocol as the confocal microscopy studies shown in FIG. 15. After 24 h viabilities were determined using the MTT assay (FIG. 17).
(§2) FIG. 6. Cytotoxicity of cis-[Ru(bpy)2(2)2]Cl2 (3) and the control compound cis-[Ru(bpy)2(MeCN)2](PF6)2 on BMM cells (A-B) and prostate cancer PC3 cells (C-D). […] Cell viability was determined using the MTT assay after 24 h for BMM cells and 72 h for PC3 cells, and is reported relative to control with only buffer added. Error bars represent the standard deviations of triplicate wells, and data are representative of three independent experiments.

[11] = test system: prostate cancer PC3 cells; test: MTT cell viability, PC3 cells; format: cell-based; details: 1 nM-100 μM, light or dark, up to 72 h
Protocol: as §2
These effects are highly dependent on the nature of ligands bound to ruthenium, and with some compounds treatment for up to 72 h is necessary to observe growth inhibitory effects. Later time points were not examined with BMM cells due to complications in maintaining these cells in culture over long periods of time, with or without VI.

[12] = target: T6, human cathepsin K; test: Cathepsin K inhibition by the Ru(TPA)-caged inhibitor, 365 nm light (Example 10); format: biochemical; details: 500 μM, highest concentration surveyed, light and dark
Protocol: Complex 10.2 acts as a potent, photoactivated inhibitor of human cathepsin K. IC50 values were determined for 10.2 and 10.3 under dark conditions, and upon irradiation with 365 nm light (FIG. 20).

Compound: CC#N.CC#N.F[P-](F)(F)(F)(F)F.F[P-](F)(F)(F)(F)F.[Ru+2].c1ccc2nc(-c3ccc4ccccc4n3)ccc2c1.c1ccc2nc(-c3ccc4ccccc4n3)ccc2c1 [12.3, [Ru(biq)2(CH3CN)2](PF6)2]
quantum yield, first CH3CN ligand exchange (Φ500) [1]: 0.24(1)
quantum yield, first CH3CN ligand exchange (Φ550) ([1]; 550 nm irradiation): 0.150(8)

quantum yield, exchange of the remaining CH3CN ligand (Φ400) ([1]; 400 nm irradiation, to the bis-aqua complex 12.5): 0.0045(1)
quantum yield, exchange of the remaining CH3CN ligand (Φ550) ([1]; 550 nm irradiation, to the bis-aqua complex 12.5): 0.0014(5)
stability in the dark [2]: stable in the dark for up to 6 hours
Compound: cis-[Ru(bpy)(biq)(CH3CN)(H2O)]^2+ [12.4]

Compound: CC(=O)N[C@@H](Cc1ccccc1)C(=O)NCC#N [compound 1, (S)-2-Acetamido-N-(cyanomethyl)-3-phenylpropanamide]
IC50 [3]: 133 µM
IC50 ([4]; without irradiation, phosphate buffer pH 6.5, enzyme 650 nM): 0.638 µM
IC50 [5]: 72 µM
IC50 [6]: 183 µM
IC50 [7]: 182 µM
IC50 [8]: 12 µM

quantum yield, first CH3CN ligand exchange (Φ500) [1]: 0.26(1)
quantum yield, first CH3CN ligand exchange (Φ550) ([1]; 550 nm irradiation): 0.140(5)
Compound: [Ru(biq)(phen)(CH3CN)2](PF6)2 [12.1]

Compound: CC#N.CC#N.[Cl-].[Cl-].[Ru+2].c1ccc(-c2ccccn2)nc1.c1ccc(-c2ccccn2)nc1 [cis-[Ru(bpy)2(MeCN)2]Cl2]
overall photoaquation quantum yield (ΦR→P) ([9]; λirr=400 nm): 0.21

Compound: N#Cc1c[nH]c(=O)[nH]c1=O.N#Cc1c[nH]c(=O)[nH]c1=O.[Cl-].[Cl-].[Ru+2].c1ccc(-c2ccccn2)nc1.c1ccc(-c2ccccn2)nc1 [cis-[Ru(bpy)2(5-cyanouracil)2]Cl2]
quantum yield for formation of the mono-aqua species (ΦR→I) [9]: 0.16(4)

Compound: CC#N.CC#N.F[P-](F)(F)(F)(F)F.F[P-](F)(F)(F)(F)F.[Ru+2].c1ccc(-c2ccccn2)nc1.c1ccc(-c2ccccn2)nc1 [cis-[Ru(bpy)2(MeCN)2](PF6)2, reference compound]
cell viability (MTT) [10]: no effects on viability
IC50 ([4]; control complex, same profile under light and dark conditions): > 500 µM
growth inhibitory effects (MTT) [11]: not observed

inhibition of cathepsin K [12]: no inhibition
Compound: [Ru(TPA)(CH3CN)2](PF6)2 [10.1]

Compound: CC#N.CC#N.F[P-](F)(F)(F)(F)F.F[P-](F)(F)(F)(F)F.[Ru+2].c1cnc2c(c1)ccc1cccnc12.c1cnc2c(c1)ccc1cccnc12 [12.2, [Ru(phen)2(CH3CN)2](PF6)2]
quantum yield, first CH3CN ligand exchange (Φ400) ([1]; 400 nm irradiation): 0.22(1)

Source: patent publication US9593138B2, “Nitrile-containing enzyme inhibitors and ruthenium complexes thereof” (Wayne State University, priority 2012, dated 2017)
